Our source for the IC50 values is patent US10508088B2, “Methods using HDAC11 inhibitors” (FORMA Therapeutics, Inc., priority 2016, dated 2019).

The term IC50 denotes the concentration that gives 50% inhibition.

Full length human recombinant HDAC11, sequence (Q96DB2 whole entry): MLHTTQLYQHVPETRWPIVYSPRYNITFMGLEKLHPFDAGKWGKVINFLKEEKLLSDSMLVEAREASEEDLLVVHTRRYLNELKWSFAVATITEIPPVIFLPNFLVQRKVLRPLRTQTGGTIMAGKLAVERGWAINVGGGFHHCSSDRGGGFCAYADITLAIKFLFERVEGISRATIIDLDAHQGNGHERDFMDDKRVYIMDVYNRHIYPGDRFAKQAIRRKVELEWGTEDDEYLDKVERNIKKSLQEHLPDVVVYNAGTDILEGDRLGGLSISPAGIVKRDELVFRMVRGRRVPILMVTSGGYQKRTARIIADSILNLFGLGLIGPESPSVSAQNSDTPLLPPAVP

This test addresses Full length human recombinant HDAC11 (Homo sapiens (Human), UniProt Q96DB2). In words: Enzymatic HDAC11 assay, electrophoretic mobility shift. The format is biochemical. The note with it: substrate FAM-RHKK(tri-fluor-Ac)-NH2, read-out: HDAC11 IC50 Range. The procedure:
The enzymatic HDAC11 assay was performed using electrophoretic mobility shift assay. Full length human recombinant HDAC11 protein was expressed in baculoviral system and purified by affinity chromatography. The enzymatic reactions were assembled in 384 well plates in a total volume of 25 μL in a reaction buffer composing: 100 mM HEPES, pH 7.5, 25 mM KCl, 0.1% bovine serum albumin, 0.01% Triton X-100, 1% DMSO (from compounds) 2 μM of the fluorescently labeled peptide substrate and enzyme. The enzyme was added at a final concentration of 10 nM. The peptide substrate FAM-RHKK(tri-fluor-Ac)-NH2 was used. The compounds were tested at 12 concentrations spaced by 3× dilution intervals. Negative control samples (0%-inhibition in the absence of inhibitor) and positive control samples (100%-inhibition) were assembled in replicates of four in each assay plate. The reactions were incubated at 25° C. and quenched by the addition of 45 μL of termination buffer (100 mM HEPES, pH 7.5, 0.01% Triton X-100, 0.05% SDS).
The terminated assay plates were analyzed on LabChip® 3000 microfluidic electrophoresis instrument (Perkin Elmer/Caliper Life Sciences). The fluorescence intensity of the electrophoretically separated de-acetylated product and substrate peptide was measured. Activity in each sample was determined as the product to sum ratio (PSR):P/(S+P), where P is the peak height of the product peptide and S is the peak height of the substrate peptide. Percent inhibition (Pinh) is determined using the following equation: Pinh=(PSR0%−PSRinh)/(PSR0%−PSR100%)*100,
where PSRinh is the product sum ratio in the presence of inhibitor, PSR0% is the average product sum ration in the absence of inhibitor and PSR100% is the average product sum ratio in 100%-inhibition control samples. The IC50 values of inhibitors were determined by fitting the percent inhibition curves with 4 parameter dose-response model using XLfit 4 software.
(A gel shift assay detects complexes by their altered migration in electrophoresis.)
For `O=C(NO)c1cccc2c1CC1(CCN(Cc3cccc(Br)c3)C1=O)C2` (stereo not shown) [II-33, 1′-(3-bromobenzyl)-N-hydroxy-2′-oxo-1,3-dihydrospiro[indene-2,3′-pyrrolidine]-4-carboxamide], the IC50 is less than 500 nM. On to `O=C(NO)c1cccc2c1CC1(CCN(Cc3ccccc3Cl)C1=O)C2` (stereo not shown) [II-25, 1′-(2-chlorobenzyl)-N-hydroxy-2′-oxo-1,3-dihydrospiro[indene-2,3′-pyrrolidine]-4-carboxamide], for which the IC50 is more than 1000 nM. With `CC(=O)N1CCC2(CCc3c(cccc3C(=O)NO)O2)CC1` [II-91, 1′-acetyl-N-hydroxyspiro[chromane-2,4′-piperidine]-5-carboxamide] the figure was more than 1000 nM; with `O=C(NO)c1cccc2c1CC1(CCN(CC3CCCCC3)C1=O)C2` (stereo not shown) [II-44, 1′-(cyclohexylmethyl)-N-hydroxy-2′-oxo-1,3-dihydrospiro[indene-2,3′-pyrrolidine]-4-carboxamide], more than 1000 nM; with `O=C(NO)c1cccc2c1CC1(CCN(Cc3ccc(F)cc3F)C1=O)C2` (stereo not shown) [II-35, 1′-(2,4-difluorobenzyl)-N-hydroxy-2′-oxo-1,3-dihydrospiro[indene-2,3′-pyrrolidine]-4-carboxamide], more than 1000 nM. For the compound `O=C(NO)c1cccc2c1CC1(CCN(Cc3ccc(C(F)(F)F)cc3)C1=O)C2` (stereo not shown) [II-6, N-hydroxy-2′-oxo-1′-(4-(trifluoromethyl)benzyl)-1,3-dihydrospiro[indene-2,3′-pyrrolidine]-4-carboxamide], the IC50 was less than 500 nM. As for `Cc1ccc(CN2CCC3(Cc4cccc(C(=O)NO)c4C3)C2=O)cc1C` (stereo not shown) [II-39, 1′-(3,4-dimethylbenzyl)-N-hydroxy-2′-oxo-1,3-dihydrospiro[indene-2,3′-pyrrolidine]-4-carboxamide], the IC50 lay within 500 to 1000 nM. With `O=C(NO)c1cccc2c1OC1(CC2)CCN(C(=O)Cc2ccccc2)CC1` [II-79, N-hydroxy-1′-(2-phenylacetyl)spiro[chromane-2,4′-piperidine]-8-carboxamide] the figure was more than 1000 nM; with `O=C(NO)c1cccc2c1CCC1(CCN(c3ccc(C(F)(F)F)cc3)C1=O)C2` (stereo not shown) [II-88, N-hydroxy-2′-oxo-1′-(4-(trifluoromethyl)phenyl)-3,4-dihydro-1H-spiro[naphthalene-2,3′-pyrrolidine]-5-carboxamide], less than 500 nM.

Regarding `O=C(NO)c1cccc2c1CC1(CCN(C3CC3)C1=O)C2` (stereo not shown) [II-9, 1′-cyclopropyl-N-hydroxy-2′-oxo-1,3-dihydrospiro[indene-2,3′-pyrrolidine]-4-carboxamide], the IC50 was more than 1000 nM.

As for `O=C(NO)c1cccc2c1CC1(CCN(Cc3cc(-c4ccccc4)no3)C1=O)C2` (stereo not shown) [II-46, N-hydroxy-2′-oxo-1′-((3-phenylisoxazol-5-yl)methyl)-1,3-dihydrospiro[indene-2,3′-pyrrolidine]-4-carboxamide], the IC50 was more than 1000 nM. For `O=C(NO)c1cccc2c1CC1(CCN(Cc3cc(F)cc(F)c3)C1=O)C2` (stereo not shown) [II-28, 1′-(3,5-difluorobenzyl)-N-hydroxy-2′-oxo-1,3-dihydrospiro[indene-2,3′-pyrrolidine]-4-carboxamide] the value was more than 1000 nM; for `O=C(NO)c1cccc2c1CC1(CCN(C(=O)c3ccc(C(F)(F)F)cc3)C1)C2` (stereo not shown) [II-58, N-hydroxy-1′-(4-(trifluoromethyl)benzoyl)-1,3-dihydrospiro[indene-2,3′-pyrrolidine]-4-carboxamide], more than 1000 nM; for `O=C(NO)c1cccc2c1CC1(CCN(Cc3cn(-c4ccccc4)nn3)C1=O)C2` (stereo not shown) [II-53], more than 1000 nM. In the case of `O=C(NO)c1cccc2c1CC1(CCN(Cc3cccc(C(F)(F)F)c3F)C1=O)C2` (stereo not shown) [II-43, 1′-(2-fluoro-3-(trifluoromethyl)benzyl)-N-hydroxy-2′-oxo-1,3-dihydrospiro[indene-2,3′-pyrrolidine]-4-carboxamide], the IC50 is less than 500 nM. With `O=C(NO)c1cccc2c1CC1(CCN(Cc3cccc(OC(F)(F)F)c3)C1=O)C2` (stereo not shown) [II-42, N-hydroxy-2′-oxo-1′-(3-(trifluoromethoxy)benzyl)-1,3-dihydrospiro[indene-2,3′-pyrrolidine]-4-carboxamide] the figure was less than 500 nM; with `CC(=O)N1CCC2(Cc3cccc(C(=O)NO)c3C2)C1` (stereo not shown) [II-59, 1′-acetyl-N-hydroxy-1,3-dihydrospiro[indene-2,3′-pyrrolidine]-4-carboxamide], more than 1000 nM; with `O=C(NO)c1cccc2c1CCC1(CCN(Cc3ccc(Cl)cc3)C1=O)C2` (stereo not shown) [II-87, 1′-(4-chlorobenzyl)-N-hydroxy-2′-oxo-3,4-dihydro-1H-spiro[naphthalene-2,3′-pyrrolidine]-5-carboxamide], more than 1000 nM.

Regarding `O=C(NO)c1cccc2c1CC1(CCN(Cc3ccccc3)CC1)C2` [II-64, 1′-benzyl-N-hydroxy-1,3-dihydrospiro[indene-2,4′-piperidine]-4-carboxamide], the IC50 is more than 1000 nM. With `O=C(NO)c1cccc2c1CC1(CCN(Cc3ccc(-n4cccn4)nc3)C1=O)C2` (stereo not shown) [II-47, 1′-((6-(1H-pyrazol-1-yl)pyridin-3-yl)methyl)-N-hydroxy-2′-oxo-1,3-dihydrospiro[indene-2,3′-pyrrolidine]-4-carboxamide] the figure was more than 1000 nM; with `O=C(NO)c1cccc2c1CC1(CCN(Cc3ccc(Cl)cc3)CC1)C2` [II-62, 1′-(4-chlorobenzyl)-N-hydroxy-1,3-dihydrospiro[indene-2,4′-piperidine]-4-carboxamide], more than 1000 nM; with `O=C(NO)c1cccc2c1CC1(CCN(c3ccc(C(F)(F)F)cc3)C1=O)C2` (stereo not shown) [II-11, N-hydroxy-2′-oxo-1′-(4-(trifluoromethyl)phenyl)-1,3-dihydrospiro[indene-2,3′-pyrrolidine]-4-carboxamide], more than 1000 nM.

For `O=C(NO)c1cccc2c1CC1(CCN(Cc3ccccc3)C1=O)C2` (stereo not shown) [II-14, 1′-benzyl-N-hydroxy-2′-oxo-1,3-dihydrospiro[indene-2,3′-pyrrolidine]-4-carboxamide], the IC50 is more than 1000 nM. For `O=C(NO)c1cccc2c1OC1(CC2)CCN(S(=O)(=O)C2CCCCC2)CC1` [II-76, 1′-(cyclohexylsulfonyl)-N-hydroxyspiro[chromane-2,4′-piperidine]-8-carboxamide] the value was more than 1000 nM. With `COc1cccc(CN2CCC3(Cc4cccc(C(=O)NO)c4C3)C2=O)c1` (stereo not shown) [II-20, N-hydroxy-1′-(3-methoxybenzyl)-2′-oxo-1,3-dihydrospiro[indene-2,3′-pyrrolidine]-4-carboxamide] the figure was more than 1000 nM. For `CC1(C(=O)N2CCC3(CCc4cccc(C(=O)NO)c4O3)CC2)CCOCC1` [II-77, N-hydroxy-1′-(4-methyltetrahydro-2H-pyran-4-carbonyl)spiro[chromane-2,4′-piperidine]-8-carboxamide] the value was more than 1000 nM; for `O=C(NO)c1cccc2c1CC1(CC2)CCN(Cc2ccc(C(F)(F)F)cc2)C1=O` (stereo not shown) [II-70, N-hydroxy-2′-oxo-1′-(4-(trifluoromethyl)benzyl)-3,4-dihydro-1H-spiro[naphthalene-2,3′-pyrrolidine]-8-carboxamide], 500 to 1000 nM; for `O=C(NO)c1cccc2c1CC1(CCN(Cc3cccc(-c4ccccc4)c3)C1=O)C2` (stereo not shown) [II-18, 1′-([1,1′-biphenyl]-3-ylmethyl)-N-hydroxy-2′-oxo-1,3-dihydrospiro[indene-2,3′-pyrrolidine]-4-carboxamide], less than 500 nM. Regarding `O=C(NO)c1cccc2c1CC1(CCN(Cc3ccccc3)CC1)C2O` (stereo not shown) [II-66, 1′-benzyl-N,1-dihydroxy-1,3-dihydrospiro[indene-2,4′-piperidine]-4-carboxamide], the IC50 was more than 1000 nM. For `O=C(NO)c1cccc2c1CC1(CCN(CCN3CCOCC3)C1=O)C2` (stereo not shown) [II-52, N-hydroxy-1′-(2-morpholinoethyl)-2′-oxo-1,3-dihydrospiro[indene-2,3′-pyrrolidine]-4-carboxamide] the value was more than 1000 nM; for `O=C(NO)c1cccc2c1CC1(CCN(Cc3ccc(C(F)(F)F)nc3)C1=O)C2` (stereo not shown) [II-48, N-hydroxy-2′-oxo-1′-((6-(trifluoromethyl)pyridin-3-yl)methyl)-1,3-dihydrospiro[indene-2,3′-pyrrolidine]-4-carboxamide], more than 1000 nM; for `O=C(NO)c1cccc2c1CC1(CCN(Cc3cccnc3)C1=O)C2` (stereo not shown) [II-24, N-hydroxy-2′-oxo-1 ‘-(pyridin-3-ylmethyl)-1,3-dihydrospiro[indene-2,3’-pyrrolidine]-4-carboxamide], more than 1000 nM. For `COc1ccc(CN2CCC3(Cc4cccc(C(=O)NO)c4C3)C2=O)cc1` (stereo not shown) [II-19, N-hydroxy-1′-(4-methoxybenzyl)-2′-oxo-1,3-dihydrospiro[indene-2,3′-pyrrolidine]-4-carboxamide] the value was more than 1000 nM; for `Cc1noc(C)c1CN1CCC2(Cc3cccc(C(=O)NO)c3C2)C1=O` (stereo not shown) [II-50, 1′-((3,5-dimethylisoxazol-4-yl)methyl)-N-hydroxy-2′-oxo-1,3-dihydrospiro[indene-2,3′-pyrrolidine]-4-carboxamide], more than 1000 nM.
